The text below walks through data of article PMC11830572, “5‐hydroxymethylcytosine features of portal venous blood predict metachronous liver metastases of colorectal cancer and reveal phosphodiesterase 4 as a therapeutic target” (Clinical and Translational Medicine, 2025).

Data set [1] concerns MC38 cells. Description: Transwell migration assay, MC38. The class given is cell-based, murine. The procedure:
To access cell migration, 1.0 × 10^5 cells were seeded into the 8‐µm‐pore upper chambers in serum‐free RPMI1640 and incubated in RPMI1640 with 10% FBS of the lower chamber of 12‐well plates (Corning Star). After normal culture for 24 h, cells were permeabilised with 100% methanol and then stained with .1% crystal violet.

A further data set has as its target PDE4 (Homo sapiens, UniProt Q08499). Nature of the data set: In vitro enzymatic activity assay: inhibitory activities of 2-arylbenzofurans towards PDE4 (3H-cAMP substrate). The conditions noted are these: for inhibition at 0.1 µM: read-out: PDE4 inhibition 100 nM. The data set is classed as biochemical.
For the next data set, the target named is PDE5A1 (535-860) (Homo sapiens, UniProt O76074). Nature of the data set: In vitro enzymatic activity assay, PDE selectivity panel: PDE5A1. The data set is classed as biochemical.
Another data set deals with PDE7A1 (130-482) (Homo sapiens, UniProt Q13946). Description: In vitro enzymatic activity assay, PDE selectivity panel: PDE7A1. The class given is biochemical.
PDE7A1 (130-482), sequence (Q13946 130-482): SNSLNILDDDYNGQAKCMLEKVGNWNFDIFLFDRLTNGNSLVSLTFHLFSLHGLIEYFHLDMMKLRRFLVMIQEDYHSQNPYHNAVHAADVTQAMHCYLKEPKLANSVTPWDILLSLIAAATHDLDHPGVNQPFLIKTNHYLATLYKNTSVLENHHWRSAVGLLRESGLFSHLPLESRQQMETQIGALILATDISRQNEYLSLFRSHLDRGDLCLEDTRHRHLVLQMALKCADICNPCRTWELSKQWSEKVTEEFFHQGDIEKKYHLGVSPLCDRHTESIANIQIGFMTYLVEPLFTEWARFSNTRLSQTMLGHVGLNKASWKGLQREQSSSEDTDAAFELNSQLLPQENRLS
Data set [2] has as its system MC38 cells. Nature of the data set: Cell viability assay (CCK8). The data set is classed as cell-based, murine. The method, then: A total of 2000–5000 cells were seeded in 96‐well plates for an overnight culture. The medium was then replaced with fresh medium supplemented with varying concentrations of drugs. […]
Data set [3] deals with HIF-1α, CCN2, p-AKT and p-ERK in MC38 cells. Nature of the data set: Western blot / immunofluorescence / mRNA of HIF-1α, CCN2, p-AKT, p-ERK in MC38 cells. The data set is classed as cell-based, murine. Conditions: for mRNA and protein levels of CCN2: HIF-1α inhibitor treatment. The method, then:
Western blot was performed using the following antibodies: anti‐phospho‐ERK (CST, #4370), anti‐ERK (CST, #4695), anti‐phospho‐AKT (CST, #4060), anti‐AKT (CST, #9272), anti‐beta‐tubulin (CST, #86298), anti‐PDE4D (Abcam, ab171750) and anti‐CCN2 (Abcam, ab6992). […] The blots were blocked with 5% non‐fat milk and incubated overnight at 4°C with the primary antibody. Afterward, the blots were incubated for 1 h with the secondary antibody and subsequent imaging was carried out by BIO‐RAD Chemidoc MP imaging system. Relative protein levels were corrected for beta‐tubulin or beta‐actin.

Another data set has as its system MC38 liver metastases. Nature of the data set: Liver metastasis model, intrasplenic injection of MC38-Luc cells. The data set is classed as in vivo, mice. The conditions noted are these: for bioluminescence of mice in the liver: day 18. The method, then:
(§1) A murine colon cancer cell line (MC38) stably transfected with the firefly luciferase (Luc) gene (Addgene plasmid #17477) was generated. To establish a model of liver metastases mice were anaesthetised with ketamine. Then the spleens were exposed to allow direct intrasplenic injections of 5 × 10^5 Luc‐labelled MC38 (MC38‐Luci) cells in 50 µL 1 mM EDTA in PBS. Mice were sacrificed 18 days after injection of the tumour cells, then spleen and liver were analysed immediately. For ex vivo imaging, female mice were administered by intraperitoneal injection with d‐luciferin (150 mg/kg; Perkin Elmer). Ten minutes later, mice were sacrificed, the livers were collected and […] the ex vivo IVIS Lumina III system (Perkin Elmer). Collected images were analysed using Living Image 4.3.1 software (Perkin Elmer): ROIs were drawn around each liver and radiant efficiency calculated.

Data set [4] is described as follows: Safety in liver metastasis model mice (body weight curve, H&E of heart, lung, kidney). The class given is in vivo. The procedure: as §1
Data set [5] in a line: Emetic assay on beagle dogs. The class given is in vivo. The procedure:
All animal care and experimental protocols were conducted in accordance with the Guide for the Care and Use of Laboratory Animals (National Institutes of Health Publication, revised 1996, no. 86‐23, Bethesda, MD) and were approved by the Institutional Animal Research Ethics Committee of Sun Yat‐Sen University. (IACUC numbers: […]‐2021‐000130). […] Animals are watched continuously for 180 min for the behaviour of retching, excessive salivation, and vomiting.

The target in the next data set is PDE1B (10-487) (Homo sapiens, UniProt Q01064). Description: biochemical.
PDE1B (10-487), sequence (Q01064 10-487): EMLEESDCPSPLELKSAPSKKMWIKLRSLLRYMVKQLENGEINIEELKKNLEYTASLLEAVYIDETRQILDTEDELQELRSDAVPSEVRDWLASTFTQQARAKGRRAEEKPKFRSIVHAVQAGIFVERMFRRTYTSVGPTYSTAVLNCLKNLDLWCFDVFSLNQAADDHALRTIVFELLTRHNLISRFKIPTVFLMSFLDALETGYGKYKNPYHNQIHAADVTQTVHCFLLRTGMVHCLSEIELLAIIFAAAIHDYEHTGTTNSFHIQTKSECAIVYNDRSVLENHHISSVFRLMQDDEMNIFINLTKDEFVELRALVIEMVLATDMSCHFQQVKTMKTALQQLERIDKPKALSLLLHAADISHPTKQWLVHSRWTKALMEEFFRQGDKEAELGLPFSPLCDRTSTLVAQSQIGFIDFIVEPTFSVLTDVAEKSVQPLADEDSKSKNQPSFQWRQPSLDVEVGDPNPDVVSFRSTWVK
A further data set has as its target PDE3A (679-1087) (Homo sapiens, UniProt Q14432). Nature of the data set: biochemical.
Data set [6] can be described thus: 2-week repeated administration in rats: overall long-term safety.
For data set [7], the system named is MC38 cells. Description: Wound healing scratch migration assay. The data set is classed as cell-based, murine. Conditions: 24 h and 48 h. The method, then: For migration assays (wound healing assays), cells were seeded in 6‐well plates and grown until confluence. Cells were scraped in each well, the medium was replaced with medium with 2% FBS to block cell proliferation. After 24 h or 48 h, the photographs of each well were obtained.

Data set [8] deals with MC38 cells. Description: RNA sequencing of treated MC38 cells. The class given is cell-based, murine. The procedure: RNA integrity was assessed using the RNA Nano 6000 Assay Kit on the Bioanalyzer 2100 system (Agilent Technologies, CA, USA). Total RNA was used as input for RNA sample preparation. Briefly, mRNA was purified from total RNA using poly‐T oligo‐attached magnetic beads. Fragmentation was performed using divalent cations at elevated temperature in First Strand Synthesis Reaction Buffer (5X). First‐strand cDNA was synthesised using a random hexamer primer and M‐MuLV Reverse Transcriptase (RNase H‐). Second‐strand cDNA synthesis was then carried out using DNA Polymerase I and RNase H. The remaining overhangs were converted to blunt ends via exonuclease/polymerase activities. After adenylation of the 3′ ends of the DNA fragments, adaptors with a hairpin loop structure were ligated to prepare for hybridisation. To select cDNA fragments in the preferred size range of 370–420 bp, the library fragments were purified using the AMPure XP system (Beckman Coulter, Beverly, USA). PCR amplification was performed using Phusion High‐Fidelity DNA polymerase, universal PCR primers, and an index (X) primer. The PCR products were then purified again using the AMPure XP system, and the library quality was assessed on the Agilent Bioanalyzer 2100 system. […] After cluster generation, the library preparations were sequenced on the Illumina NovaSeq platform, generating 150 bp paired‐end reads.

The test system of another data set is PDE4B2. Also on record: method as in PMID 22483586. Conditions: cited from earlier work.
The next data set deals with PDE4D2. On the set-up: method as in PMID 22483586. The conditions noted are these: cited from earlier work.
The mark [9] stands for this setting: mice, MC38-Luc intrasplenic, two weeks of treatment.

The structures appear in SMILES notation. Entries after “also recorded” stand apart in the source; their conditions may differ. Where two headings read alike, the source gives them in different places.

PDE4, sequence (Q08499 388-715): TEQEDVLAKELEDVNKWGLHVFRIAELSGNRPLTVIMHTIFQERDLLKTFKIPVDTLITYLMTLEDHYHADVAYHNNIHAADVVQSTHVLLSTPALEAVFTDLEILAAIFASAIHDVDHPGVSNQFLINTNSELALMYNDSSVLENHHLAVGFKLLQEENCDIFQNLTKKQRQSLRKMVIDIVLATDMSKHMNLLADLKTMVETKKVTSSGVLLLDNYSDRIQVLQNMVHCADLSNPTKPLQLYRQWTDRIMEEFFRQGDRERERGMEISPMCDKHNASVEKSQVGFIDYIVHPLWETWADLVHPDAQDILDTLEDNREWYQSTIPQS
PDE3A (679-1087), sequence (Q14432 679-1087): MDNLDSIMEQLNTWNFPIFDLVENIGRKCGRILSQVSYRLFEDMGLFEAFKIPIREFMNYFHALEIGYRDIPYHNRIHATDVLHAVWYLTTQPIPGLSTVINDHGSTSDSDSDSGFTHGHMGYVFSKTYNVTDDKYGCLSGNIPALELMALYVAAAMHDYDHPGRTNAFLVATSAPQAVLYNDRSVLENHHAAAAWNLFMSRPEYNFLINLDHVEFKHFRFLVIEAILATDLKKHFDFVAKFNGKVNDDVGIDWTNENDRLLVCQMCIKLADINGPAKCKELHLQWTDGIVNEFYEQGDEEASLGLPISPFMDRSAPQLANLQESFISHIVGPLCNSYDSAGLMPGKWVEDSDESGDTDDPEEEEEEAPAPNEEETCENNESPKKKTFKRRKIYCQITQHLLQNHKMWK
Experimental for PDE1B (10-487): (§2) Briefly, the recombinant plasmid was transformed into Escherichia coli competent cells BL21 (CodonPlus) and cultured in LB medium at 37°C until the optical density at 600 nm (A600) reached .6–.8. Induction of protein expression was achieved by adding .1 mM isopropyl β‐D‐thiogalactopyranoside (IPTG), followed by further incubation at 15°C for 24 h. The recombinant proteins were then purified using a Ni‐NTA column (Qiagen), a Q column (GE Healthcare), and a Superdex 100 column (GE Healthcare), and Superdex 100 column (GE Healthcare). The enzymatic activities of PDEs were measured by using ^3H‐cAMP or ^3H‐cGMP (GE Healthcare) as substrates. The assay buffer contains 20 mM Tris‐HCl (pH 7.5), 10 mM MgCl2 or 4.0 mM MnCl2, 1.0 mM dithiothreitol, and 10–30 nM ^3H‐cAMP or ^3H‐cGMP (20 000–30 000 cpm/assay). The reaction was conducted at room temperature for 15 min and then terminated by adding .2 M ZnSO4. The reaction products, 3H‐AMP or 3H‐GMP, were precipitated with .2 N Ba(OH)2, while unreacted 3H‐cAMP or 3H‐cGMP remained in the supernatant. The radioactivity of the supernatant was measured in 2.5 mL of Ultima Gold liquid scintillation cocktail (Fisher Scientific) using a PerkinElmer 2910 liquid scintillation counter. For the measurement of IC50, eight concentrations at least were used and IC50 values were calculated by the nonlinear regression.
Experimental for PDE3A (679-1087): as §2
Experimental for PDE5A1 (535-860): as §2
Experimental for PDE7A1 (130-482): as §2

As for `NC1(c2ccc(-c3nc4ccn5c(=O)[nH]nc5c4cc3-c3ccccc3)cc2)CCC1` [MK2206], in the data set with MC38 cells [1], the “migration, transwell assay” value is “significantly inhibit MC38 metastases”.
In the case of `FC(F)Oc1ccc(-c2cc3ccccc3o2)cc1OCC1CC1` [L10], at 1 µM the inhibition at PDE4 was 37.4%.
For `NC(=O)c1ccc(-c2cc3ccc(O)cc3o2)cc1Nc1cc(F)cc(F)c1` [L9], at PDE4, the inhibition at 1 µM was 65.8% and the inhibition at 0.1 µM was 39.1%.
Consider `Oc1ccc2cc(-c3ccc(OC(F)F)c(OCC4CC4)c3)oc2c1` [L11], for which the IC50 at PDE5A1 (535-860) is 3000 nM; against PDE7A1 (130-482) it was 2290 nM; in the data set on MC38 cells [2] (Mus musculus, MC-38) it was roughly 20000 nM; against PDE1B (10-487), greater than 10000 nM; on PDE3A (679-1087) it was greater than 10000 nM. Also, the “cell viability / growth (CCK8 assay)” value in the data set on MC38 cells [2] is recorded as “significantly inhibit the growth”. Further, the “levels of CCN2, p-AKT and p-ERK” value in data set [3] was “significantly repressed”. Further, the “bioluminescence of mice in the liver” value in the data set on MC38 liver metastases was “significant decrease”. Besides, in the data set on MC38 liver metastases (setting [9]), the “liver metastases (liver images and bioluminescence images)” value is reported as “significantly inhibit tumour metastases”. Besides, the “metastatic areas in the liver (H&E staining)” value in the data set on MC38 liver metastases (mice, after treatment) is recorded as “significantly suppressed liver metastases”. The “safety: body weight and H&E of heart, lung and kidney” value in data set [4] is “safety of compound L11 was observed; also recorded: could not induce weight loss or any major organ damage”. The “No. of animals with emesis/No. of test animals” value in data set [5] (10 mg/kg po) was 0/3. In [5] (oral dose of 10 mg/kg), the emetic activity result was “did not induce emetic effects”. Also, in data set [6] (30 mg/kg or 100 mg/kg intraperitoneal injection for 2 weeks), the “food intake, weight, haematology indicators and serum test indicators” value is reported as “no abnormal changes”. Besides, the “adverse effects on body weight or other signs of overt toxicity” value in [6] (daily doses of up to 100 mg/kg for 2 weeks) was “did not cause any adverse effects”.
Take `COc1cccc(Nc2cc(-c3cc4ccc(Cl)cc4o3)ccc2C(N)=O)c1` [L5]: on PDE4, the inhibition at 1 µM was found to be 36.9% and the inhibition at 0.1 µM was 15.9%.
With `COc1cccc(-c2cc(=O)c3ccccc3o2)c1N` [PD98095], in the data set with MC38 cells [1], the “migration, transwell assay” value is reported as “significantly inhibit MC38 metastases”.
On to `C=C[C@@]1(C)CC(=O)[C@]2(O)[C@@]3(C)[C@@H](O)CCC(C)(C)[C@@H]3[C@H](O)[C@H](OC(C)=O)[C@@]2(C)O1` [FSK, forskolin], for which the “migration, transwell assay” value in the data set with MC38 cells [1] is recorded as “quantitatively similar to those of roflumilast”. Further, the “levels of CCN2, p-AKT and p-ERK” value in data set [3] was “significantly inhibited”.
For `Oc1ccc2cc(-c3ccc(OC(F)F)c(OC4CCCC4)c3)oc2c1` [L13], at PDE4, half-maximal inhibition (IC50) was put at 145 ± 2.3 nM, 1 µM produced 92.2% inhibition and the inhibition at 0.1 µM came to 42.7%.
In the case of `COc1cccc(Nc2cc(-c3cc4ccccc4o3)ccc2C(N)=O)c1` [L1], at PDE4, the inhibition at 1 µM stood at 55.7% and the inhibition at 0.1 µM is 41.9%.
Turning to `COc1cccc(Nc2cc(-c3cc4cc(OC)ccc4o3)ccc2C(N)=O)c1` [L3], at PDE4, the inhibition at 1 µM came out at 24.1% and the inhibition at 0.1 µM was found to be 17%.
For the compound `NC(=O)c1ccc(-c2cc3ccc(O)cc3o2)cc1Nc1cccc(Cl)c1` [L7], on PDE4, the IC50 was 197 ± 37.4 nM, the inhibition at 1 µM was 77.5% and the inhibition at 0.1 µM was found to be 44.1%.
Turning to `COc1cccc(Nc2cc(-c3cc4cc(F)ccc4o3)ccc2C(N)=O)c1` [L6], on PDE4, the inhibition at 1 µM stood at 55.5% and the inhibition at 0.1 µM was found to be 30.3%.
Regarding `COc1cccc(Nc2cc(-c3cc4ccc(O)cc4o3)ccc2C(N)=O)c1` [L2], on PDE4, half-maximal inhibition (IC50) required 181 ± 13 nM, 1 µM produced 68.5% inhibition and the inhibition at 0.1 µM turned out to be 48.6%.
Consider `O=C(Nc1c(Cl)cncc1Cl)c1ccc(OC(F)F)c(OCC2CC2)c1` [Roflumilast, roflumilast], for which the “cell viability / growth (CCK8 assay)” value in the data set on MC38 cells [2] is recorded as “less toxicity”. The “migration, scratch wound closure” value in the data set with MC38 cells [7] was “significantly inhibited the migration”. Also, the “migration, transwell assay” value with MC38 cells [1] (combined with siCCN2) is reported as “could not inhibit tumour metastases”. Further, the “migration, transwell assay” value in the data set on MC38 cells [1] (combined with siHIF1A) is listed as “Same result”. Also, in data set [3] (24 h), the “HIF-1α and CCN2 expression levels (western blot)” value is recorded as “inhibited”. Further, the “protein level of CCN2 (immunofluorescence)” value in data set [3] (48 h) was “decreased significantly”. In addition, the “expression of eight cell adhesion pathway genes (CCN2, LAMB3, EGFL7, EPHA8, COL7A1, AMIGO2, COL6A3, CDH26)” value in the data set with MC38 cells [8] was “relatively low expression”. Further, the “bioluminescence of mice in the liver” value with MC38 liver metastases was “significant decrease”. In the data set on MC38 liver metastases (setting [9]), the “liver metastases (liver images and bioluminescence images)” value is “fewer metastatic lesions”; the “metastasis sites, liver total flux (and liver weight), quantitative statistics” value was “could inhibit liver metastasis”. Besides, in data set [5] (1.0 mg/kg po), the “No. of animals with emesis/No. of test animals” value was 3/3.
For the compound `COc1cccc(Nc2cc(-c3cc4cccc(OC)c4o3)ccc2C(N)=O)c1` [L4], at PDE4, at 1 µM the inhibition was 59.5% and the inhibition at 0.1 µM is 28.9%.
For `COc1cc2c(cc1O)CC[C@@H]1[C@@H]2CC[C@]2(C)[C@@H](O)CC[C@@H]12` [2‐MEOE2], the “mRNA and protein levels of CCN2” value in data set [3] was “significant decrease”.
With `Oc1cc(O)cc(-c2cc3ccc(O)cc3o2)c1` [Moracin M], the IC50 in the data set on PDE4B2 was 4500 nM; with PDE4D2, 2900 nM.
`FC(F)Oc1ccc(-c2cc3ccccc3o2)cc1OC1CCCC1` [L12]: at PDE4, it took 910 nM to reach half-maximal inhibition (IC50), the inhibition at 1 µM came to 73.3% and the inhibition at 0.1 µM is 13.2%.
Regarding `NC(=O)c1ccc(-c2cc3ccc(O)cc3o2)cc1Nc1cccc(F)c1` [L8], at PDE4, the inhibition at 1 µM was found to be 61.6% and the inhibition at 0.1 µM came to 30.6%.
As for `O=S(=O)(NCCSSCCNS(=O)(=O)c1cc(Cl)ccc1Cl)c1cc(Cl)ccc1Cl` [KC7F2], the “mRNA and protein levels of CCN2” value in data set [3] is on record as “significant decrease”.
